# Measured values taken from patent US20210393565A1, “PREPARATION FOR USE TO INCREASE THE FORMATION OF ONE OR MORE SPECIALIZED PRO-RESOLVING LIPID MEDIATORS (SPM)” (Evonik Operations GmbH, priority 2018, published 2021).
# How the values were obtained:
# Format in all cases: cell-based
# [1] = test system: Bacillus megaterium DSM 32963 cells; assay: Lipidometabolomics (UPLC-MS/MS) of culture supernatants with AvailOm, dissolved or as dispersion; settings: for Extracellular concentration of PUFA oxygenation product: − bile acids, net after subtraction of cell-free control
# Excerpt: (§1) Bacterial supernatant samples were subjected to lipid extraction using RP-phase solid phase extraction and subsequently analyzed by ultra performance liquid chromatography ESI tandem mass spectrometry (UPLC-MS/MS) according to a published procedure. Under these conditions approximately 40 different LM, including 5-hydroxy-eicosapentaenoic acid 5-HEPE, 8-HEPE, 11-HEPE, 12-HEPE, 15-HEPE, 18-HEPE, 5-hydroxy-eicosatetraenoic acid (5-HETE), 8-HETE, 11-HETE, 12-HETE, 15-HETE, 4-hydroxy-DHA (4-HDHA), 7-HDHA, 13-HDHA, 14-HDHA, 17-HDHA, lipoxin A4 (LXA4), LXB4, resolvin E1 (RvE1), RvE3, resolvin D1-5 (RvD1-5), AT-RvD1, RvD2, protectin D1 (PD1), AT-PD1, maresin 1(MaR1), MaR2, plus 4 fatty acid substrates can be detected with a lower limit of detection of 1 pg.
# To investigate if Bacillus megaterium is capable of producing other PUFA oxygenation products in addition to 18-HEPE, a lipidometabolomics screening of supernatants from Bacillus megaterium strain 32963 cultured as in example 4 with AvailOm® was performed, either dissolved or in a dispersion formulation, with or without bile acids. Cell-free preparations of AvailOm® formulations were treated and analyzed in parallel and served as controls for non-enzymatic, spontaneous formation of oxygenation products. Values given in table 6 display net concentrations of products formed, i.e. after subtraction of control values. […] Concentrations of several SPM exceed by far the concentrations of SPM found in human plasma samples, which are typically in a range of ˜20-100 pg/ml. For comparison, human breast milk contains ˜6.000 pg/ml RvE1 and ˜10.000 pg/ml RvD1 [42].
# [2] = test system: Bacillus megaterium DSM 33296 cells; assay: Lipidometabolomics of culture supernatants with AvailOm dispersion formulation; settings: Bacillus megaterium DSM 33296, AvailOm dispersion formulation; net concentration
# Excerpt: as §1
# (§2) 47 additional Bacillus megaterium strains sourced from various habitats were screened for their SPM production capacity to determine if this is a general phenomenon of the species Bacillus megaterium and to detect strain-specific differences in types and quantities of SPM being produced. Cells were cultured as detailed in example 4, with dispersion formulation of AvailOm® serving as omega-3 fatty acid source. Cell-free preparations of AvailOm® were treated and analyzed in parallel and served as controls for non-enzymatic, spontaneous formation of oxygenation products. It was observed that all tested strains produced measurable (>1 pg/ml) amounts of various SPM and precursors thereof, that these amounts were hugely different between the strains (up to 2.000 fold), and that concentrations of RvE3 were particularly high (up to 1.3 μg/ml) in most of the strains.
# (§3) Values given in table 7 display net concentrations of PUFA oxygenation products formed by two of the top performing strains, Bacillus megaterium DSM 33296 and Bacillus megaterium DSM 33299.
# [3] = test system: Bacillus megaterium DSM 33299 cells; assay: as above; settings: Bacillus megaterium DSM 33299, AvailOm dispersion formulation; net concentration
# Excerpt: as §1, §2, §3
Compound,Extracellular concentration of PUFA oxygenation product ([1]; AvailOm dispersion) [pg/mL],Extracellular concentration of PUFA oxygenation product ([1]; AvailOm) [pg/mL],Extracellular concentration of PUFA oxygenation product [2] [pg/mL],Extracellular concentration of PUFA oxygenation product [3] [pg/mL],abundance with dispersion formulation and/or bile acids compared to AvailOm without both (in words) [1]
"CC/C=C\C[C@H](O)\C=C/C=C/C=C/[C@H](O)C/C=C\C/C=C\CCC(=O)O [PD1 1, protectin D1]",3841,113,99029,75342,–
11-hydroxy-eicosapentaenoic acid [11-HEPE],–,4659,124860,63306,lower
CC/C=C\C[C@H](O)/C=C/C=C\C/C=C\C=C\[C@@H](O)C/C=C\CCC(=O)O [RvD5],9016,68,15079,34168,–
"CC/C=C\C[C@@H](O)/C=C/C=C\C=C\C=C\[C@@H](O)[C@@H](O)C/C=C\CCC(=O)O [AT-RvD1, Aspirin-triggered RvD1]",4932,519,9612,48243,–
"CCC=CCC=CCC=CCC=CC=CC(O)CCCC(=O)O (stereo not shown) [5-HEPE, 5-hydroxy-eicosapentaenoic acid]",–,2253,395188,989691,lower
CC/C=C\C[C@H](O)/C=C\C=C\C/C=C/C=C/C=C/C(O)[C@@H](O)CCC(=O)O (stereo partly shown) [RvD4],–,3681,1986,2523,–
RvD1,1863,598,3626,4389,–
5-hydroxy-eicosatetraenoic acid [5-HETE],–,13,15434,9356,lower
"CC/C=C\C[C@H](O)[C@@H](O)/C=C/C=C/C=C\C=C\[C@@H](O)CCCC(=O)O [LXB5, lipoxin B5]",669042,2376,–,–,–
"CC[C@@H](O)/C=C/C=C\C[C@@H](O)/C=C/C=C/C=C\[C@@H](O)CCCC(=O)O [RvE1, resolvin E1]",57826,88,5840,28379,–
"CCCCC/C=C\C/C=C\C=C\C(O)C/C=C\CCCC(=O)O (stereo not shown) [8-HETE, 8-hydroxy-eicosatetraenoic acid]",–,–,24207,15941,lower
CC/C=C\C[C@H](O)/C=C/C=C\C=C\[C@@H](O)C/C=C\C/C=C\CCC(=O)O [PDX 1],19542,109,78345,138918,–
"CC/C=C\C/C=C\C[C@H](O)\C=C/C=C/C=C/[C@H](O)C/C=C\CCC(=O)O [MaR1, maresin 1]",145,114,1161,1576,–
CC/C=C\C[C@H](O)/C=C/C=C\C[C@@H](O)/C=C/C=C/C=C\[C@@H](O)CCC(=O)O [RvD3],8409,178,381,941,–
